These compounds were tested against T1, human Kv72+3 channels (Homo sapiens, UniProt O43525+O43526) (assay: Patch-clamp, HEK293 cells stably expressing human Kv7.2+3 channels). Details: conc. 0.03 μM, −30 mV, 20 ms; current relative to baseline current defined as 100%.
T1 construct: expressed in transfected cells; host or cells: HEK293
Assay type: cell-based
Source text: The effect obtained by these channel activators is described as a percentage increase in baseline current at a given concentration. The baseline current is defined as 100%, and an increase in current is expressed relative to this, i.e. an increase from 1 nA to 1.2 nA is reported as 120%.

T1 sequence (O43526 whole entry): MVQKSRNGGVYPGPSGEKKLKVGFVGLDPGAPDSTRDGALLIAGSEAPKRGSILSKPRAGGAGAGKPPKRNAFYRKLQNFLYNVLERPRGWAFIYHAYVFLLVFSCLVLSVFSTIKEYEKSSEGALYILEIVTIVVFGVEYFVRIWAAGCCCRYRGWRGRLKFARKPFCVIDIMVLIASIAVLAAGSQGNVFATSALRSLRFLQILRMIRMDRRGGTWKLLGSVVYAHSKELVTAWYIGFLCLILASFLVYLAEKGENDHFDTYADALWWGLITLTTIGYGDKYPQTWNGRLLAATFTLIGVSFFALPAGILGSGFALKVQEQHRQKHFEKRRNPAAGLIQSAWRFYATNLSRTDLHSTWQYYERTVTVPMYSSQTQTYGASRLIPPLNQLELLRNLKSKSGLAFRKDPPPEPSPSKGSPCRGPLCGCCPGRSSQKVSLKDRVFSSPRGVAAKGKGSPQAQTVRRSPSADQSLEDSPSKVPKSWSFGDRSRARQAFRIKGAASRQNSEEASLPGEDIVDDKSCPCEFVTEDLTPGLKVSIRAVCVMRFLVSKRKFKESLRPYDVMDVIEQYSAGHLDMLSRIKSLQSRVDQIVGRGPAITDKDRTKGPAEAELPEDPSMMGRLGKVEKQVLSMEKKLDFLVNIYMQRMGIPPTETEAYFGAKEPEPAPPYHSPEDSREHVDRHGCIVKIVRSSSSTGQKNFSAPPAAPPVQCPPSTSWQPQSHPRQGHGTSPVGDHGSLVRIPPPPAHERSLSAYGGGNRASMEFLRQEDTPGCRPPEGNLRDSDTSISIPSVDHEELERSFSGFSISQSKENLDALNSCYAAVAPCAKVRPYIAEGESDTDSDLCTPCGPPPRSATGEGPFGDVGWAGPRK
T1 sequence (O43525 whole entry): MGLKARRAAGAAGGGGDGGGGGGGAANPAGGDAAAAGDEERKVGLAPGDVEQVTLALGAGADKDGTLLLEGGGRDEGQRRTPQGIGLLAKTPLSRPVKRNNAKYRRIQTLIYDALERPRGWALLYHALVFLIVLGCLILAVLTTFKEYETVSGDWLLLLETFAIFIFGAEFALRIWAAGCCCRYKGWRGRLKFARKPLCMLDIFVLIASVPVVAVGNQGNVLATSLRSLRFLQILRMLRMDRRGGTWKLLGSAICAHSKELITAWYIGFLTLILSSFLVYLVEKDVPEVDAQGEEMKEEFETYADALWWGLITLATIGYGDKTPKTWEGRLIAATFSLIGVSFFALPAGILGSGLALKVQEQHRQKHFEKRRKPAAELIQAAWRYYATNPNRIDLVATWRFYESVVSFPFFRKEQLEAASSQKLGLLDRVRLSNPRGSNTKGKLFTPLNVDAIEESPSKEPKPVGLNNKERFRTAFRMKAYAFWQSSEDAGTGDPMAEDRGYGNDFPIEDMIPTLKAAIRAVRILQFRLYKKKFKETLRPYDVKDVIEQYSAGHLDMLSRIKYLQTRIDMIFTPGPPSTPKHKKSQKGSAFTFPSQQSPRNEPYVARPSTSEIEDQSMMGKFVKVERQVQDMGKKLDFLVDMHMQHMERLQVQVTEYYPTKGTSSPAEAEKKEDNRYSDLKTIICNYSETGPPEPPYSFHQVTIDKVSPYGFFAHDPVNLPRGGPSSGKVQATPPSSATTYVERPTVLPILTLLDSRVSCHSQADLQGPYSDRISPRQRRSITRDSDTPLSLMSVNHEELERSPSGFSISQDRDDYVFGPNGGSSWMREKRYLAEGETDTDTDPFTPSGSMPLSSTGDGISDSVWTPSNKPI

| Compound | IK (%) |
| --- | --- |
| CCN(CC)c1nc(NCc2ccc(F)cc2)ccc1NC(=O)[C@@H]1C[C@H]1c1ccccc1 (relative stereo) [Compound 7, trans-2-Phenyl-cyclopropanecarboxylic acid [2-diethylamino-6-(4-fluoro-benzylamino)-pyridin-3-yl]-amide] | 520 |
| CCN(CC)c1nc(NCc2ccc(F)cc2)ccc1NC(=O)Cc1cc(F)cc(F)c1 [Compound 1, N-[2-Diethylamino-6-(4-fluoro-benzylamino)-pyridin-3-yl]-2-(3,5-difluoro-phenyl)-acetamide] | 1247 |
| CCN(CC)c1nc(NCc2ccc(F)cc2)ccc1NC(=O)Cc1ccc(C(F)(F)F)c(F)c1 [Compound 3, N-[2-Diethylamino-6-(4-fluoro-benzylamino)-pyridin-3-yl]-2-(3-fluoro-4-trifluoromethyl-phenyl)-acetamide] | 282 |
| CCN(CC)c1nc(NCc2ccc(F)cc2)ccc1NC(=O)[C@@H](C)c1ccccc1 [Compound 4, (S)—N-[2-Diethylamino-6-(4-fluoro-benzylamino)-pyridin-3-yl]-2-phenyl-propionamide] | 334 |
| CCN(CC)c1nc(NCc2ccc(F)cc2)ccc1NC(=O)CC(C)(C)C [Compound 9, N-[2-Diethylamino-6-(4-fluoro-benzylamino)-pyridin-3-yl]-3,3-dimethyl-butyramide] | 550 |
